The structures appear in SMILES notation.

One series concerns the target T1, Aβ 1-42 (Homo sapiens, UniProt P05067).
T1 construct: The reaction solutions contained Aβ 1-42 at concentrations
As to the kind of experiment: Fluorometric H2O2 assay (inhibition of Abeta H2O2 production). The note with it: concentration required to inhibit 50% of Abeta H2O2 production; read-out: H2O2 IC50. The series is classed as biochemical. The method, boiled down: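 Reactions in PBS pH 7.4 at 37 C for 60 min, containing Aβ, copper and test compound. H2O2 output read as fluorescence of HRP-coupled deacetylated DCF. Fluorescence converted to H2O2 concentration via H2O2 standards.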

The subject of series [1] is primary cortical neuronal cultured cells. As to the kind of experiment: Test compound cytotoxicity, MTS assay, primary cortical neuronal cultures. The class given is cell-based, mouse. The procedure, abridged: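 Primary cortical neurons were cultured five days in Neurobasal/B27, then exposed on day six to compounds (from 2.5 mM DMSO stocks) in medium minus antioxidants, in triplicate for 4 days at 37° C. Viability was measured by MTS, 2 h at 37° C, absorbance at 560 nm.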

Series [2] relates to M17 human neuroblastoma cells. Description: Cytotoxicity, M17 human neuroblastoma cells. The series is classed as cell-based. As to the method:
Assay 3. MTS Assay for Cell Viability
Cell viability is determined using the MTS assay. Culture medium is replaced with fresh neurobasal medium plus B27 supplements minus antioxidants. 1/10th volume MTS solution (Cell Titre 96 Aqueous One, Promega Corporation) and incubated at 37° C., 2 hrs. 200 microliter aliquots are measured with a spectrophotometer at 560 nm.

Series [3] deals with dityrosine oligomerization. Description: CuTy: inhibition of dityrosine oligomerization. The series is classed as biochemical. The note with it: referenced to in-house standard (set as 100% inhibition).
The target of series [4] is T2, Abeta:Zn (25:50 μM) Synthetic Aggregations (Homo sapiens, UniProt P05067).
T2 construct: PB Compound Mediated Dissolution of Aggregated Abeta 1-42; purchased Keck Laboratory, Yale University School of Medicine
Description: Disaggregation of Abeta:Zn synthetic aggregates (ThT fluorescence). The series is classed as biochemical. The procedure, abridged:
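ThT signal (excitation 450 nm, emission 480 nm) measured after compounds at final 1, 5, 10, 25 and 50 μM acted 2 h at 37 degrees on preformed aggregates. Those aggregates came from 24 h rotating incubation of 25 μM Abeta1-42, 50 μM ZnCl2 and 50 μM ThT in PBS pH 6.6.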

Series [5] in a line: Mice plasma concentration after oral dose. The class given is in vivo. The following applies: 30 min to 4 h after single or repeat oral dose of 30 mg/kg.
Series [6] relates to metal ions in retinal drusen. As to the kind of experiment: Post mortem retina screening, ZP1 zinc labeling of Bruch membrane. The following applies: 15 hours incubation; TPEN 100 μM, PB-1033 100 and 250 μM; 10 μM ZP1. As to the method: Post Mortem Screening The BAS assay is adopted for post mortem retina. Using a trephine, 6 mm diameter regions of peripheral retina from frozen donor eyes are dissected. Following defrosting, the neuronal retina and the RPE cells are removed by gentle agitation in PBS buffer. Following removal of the RPE cells, strips of the Bruch membrane are cut from the eye. 4 samples are prepared: 1) Control […] Samples are then washed 3 times and the labeling visualized using a fluorescence and confocal microscope. A repeat of this procedure is performed with the exception that samples are incubated for a period of 15 hours before washing to determine differential metal binding over this longer period. The test results are in the form of fluorescence imaging from a confocal microscope of the 4 samples tested in this Example after 15 hours of sample incubation. […] Fluorescence microscopic photographs (which are in colour) are available upon request from the […].

For another series, the system named is Aβ deposits. The note with it: daily oral gavage 30 mg/kg, 9 weeks, 13-14 months old transgenic mice.
Series [7] is described as follows: Toxicity, visual observations in mice. The note with it: 30 mg/kg; duration and visual observations.

T2 sequence (P05067 672-713 limits assumed): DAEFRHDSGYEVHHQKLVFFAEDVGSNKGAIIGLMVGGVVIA
T1 sequence (P05067 672-713 limits assumed): as above

As to `CN(C)Cc1ccc2c(Cl)cc(Cl)c(O)c2n1.Cl` [PB 1033], the IC50 at Aβ 1-42 is 0.35 µM. Besides, the “Cytotox (% viable) Neuronal cells at 1 μM” value in series [1] (1 μM test compound) was 84%. For the same compound, the “Cytotox (% viable) Neuronal cells at 10 μM” value in series [1] (10 μM test compound) is 72%. The “Cytotox (% viable) M17 cells at 1 μM” value in series [2] (1 μM test compound) is 94%. Besides, the “Cytotox (% viable) M17 cells at 10 μM” value in [2] (10 μM test compound) is 54.3%. Moreover, in [3], the “CuTy % inhibition of dityrosine oligomerization” value was found to be 100%. The “Disaggregation % Aggregate reduction at 5 μM” value in series [4] (5 μM test compound) amounted to 33.2%. Further, in series [4] (Abeta:Zn 25:50 μM aggregates), the EC50 stood at 18.6 µM. Also, in series [5], the Mice plasma concentration entry is “Up to 500 ng/ml ng/mL”. The “ZP1 (zinc sensor) labeling of post mortem Bruch membrane” value in series [6] is listed as “inhibited ZP1 labeling”. In addition, in the series with Aβ deposits, the “Tg Mice % difference from control in Amyloid plaque abundance” value is −42%, the “Tg Mice % difference from control in insoluble brain amyloid burden” value was −29% and the “Tg Mice % difference from control in soluble brain amyloid burden” value is on record as −37%. Also, the “Toxicity at 30 mg/kg” value in [7] was 10 days, none.

The values above are taken from patent US9163018B2, “Method of treatment of age-related macular degeneration (AMD)” (Prana Biotechnology Limited, priority 2006, dated 2015).
